According to ChEMBL document CHEMBL4513161, “CO-ADD screening of MMV (CH) - Pandemic Response Box” (2021):
Values after ≈ are worked out from the molar mass of the structure shown. Counter-ions that a name gives are not always drawn.

Columns and labels:
Acinetobacter baumannii = assay: microbe, parasite or virus in culture; conditions: ATCC 19606, 18 h, ASSAY_TEST Inhibition of Bacterial Growth, detection method Absorption (OD600), MEDIA CAMHB, plate type 384well, NBS, CORNING #3640
Description: Antibacterial activity against Acinetobacter baumannii ATCC 19606 (CO-ADD:GN_034); MIC in CAMBH media using NBS plates, by OD600

Escherichia coli = assay: microbe, parasite or virus in culture; conditions: ATCC 25922, 18 h, ASSAY_TEST Inhibition of Bacterial Growth, detection method Absorption (OD600), MEDIA CAMHB, plate type 384well, NBS, CORNING #3640
Description: Antibacterial activity against Escherichia coli ATCC 25922 (CO-ADD:GN_001); MIC in CAMBH media using NBS plates, by OD(600)

Pseudomonas aeruginosa [1] = assay: Antibacterial activity against Pseudomonas aeruginosa PAO397 [PAO1 d(mexAB-oprM) d(mexCD-oprJ) d(mexEF-oprN) d(mexJKL) d(mexXY) d(opmH)] (CO-ADD:GN_211); MIC in CAMBH media using NBS plates, by OD(600); format: functional; conditions: ASSAY_TEST Inhibition of Bacterial Growth, detection method Absorption (OD600), MEDIA CAMHB, plate type 384well, CORNING #3640, time 18 hr
Candida albicans = assay: microbe, parasite or virus in culture; conditions: ATCC 90028, ASSAY_TEST Inhibition of Fungal Growth, detection method Absorption (OD530), plate type 384well, NBS, CORNING #3640
Description: Antifungal activity against Candida albicans ATCC 90028 (CO-ADD:FG_001); MIC in YNB media using NBS plates, by OD630

Klebsiella pneumoniae = assay: microbe, parasite or virus in culture; conditions: ATCC 700603, 18 h, ASSAY_TEST Inhibition of Bacterial Growth, detection method Absorption (OD600), MEDIA CAMHB, plate type 384well, NBS, CORNING #3640
Description: Antibacterial activity against Klebsiella pneumoniae MDR ATCC 70063 (CO-ADD:GN_003); MIC in CAMBH media using NBS plates, by OD(600)

Pseudomonas aeruginosa [2] = assay: microbe, parasite or virus in culture; conditions: ATCC 27853, 18 h, ASSAY_TEST Inhibition of Bacterial Growth, detection method Absorption (OD600), MEDIA CAMHB, plate type 384well, NBS, CORNING #3640
Description: Antibacterial activity against Pseudomonas aeruginosa ATCC 27853 (CO-ADD:GN_042); MIC in CAMBH media using NBS plates, by OD(600)

Staphylococcus aureus = assay: microbe, parasite or virus in culture; conditions: ATCC 43300, 18 h, ASSAY_TEST Inhibition of Bacterial Growth, detection method Absorption (OD600), MEDIA CAMHB, plate type 384well, NBS, CORNING #3640
Description: Antibacterial activity against Staphylococcus aureus MRSA ATCC 43300 (CO-ADD:GP_020); MIC in CAMBH media, using NBS plates, by OD(600)

HEK293 = assay: cells; format: functional, Homo sapiens, ATCC CRL1573; conditions: Homo sapiens, ATCC CRL1573, HEK293; ASSAY_TEST Inhibition of Cell Viability; detection method Resazurin; Fluorescence (ex560/em590); MEDIA DMEM with 10% FBS; plate type 384well; TC; CORNING #3712; time 18 hr; read-out: CC50

Description for Cryptococcus neoformans: Antifungal activity against Cryptococcus neoformans H99 ATCC 208821 (CO-ADD:FG_002); MIC in YNB media using NBS plates, by Resazurin OD(600-570)

Row | MIC (Acinetobacter baumannii) [µM] | MIC (Cryptococcus neoformans) [µM] | MIC (Escherichia coli) [µM] | MIC (Pseudomonas aeruginosa [1]) [µM] | MIC (Candida albicans) [µM] | MIC (Klebsiella pneumoniae) [µM] | MIC (Pseudomonas aeruginosa [2]) [µM] | MIC (Staphylococcus aureus) [µM] | Structure (SMILES) | CC50 (HEK293) [µM]
1 | > 20 | > 20 | > 20 | > 20 | > 20 | > 20 | > 20 | > 20 | CCc1nc2ccc(Cl)cn2c1C(=O)NCc1ccc(N2CCC(c3ccc(OC(F)(F)F)cc3)CC2)cc1 [TELACEBEC] | > 20
2 | > 20 | > 20 | > 20 | > 20 | > 20 | > 20 | > 20 | 20 | CC[N+]1(C/C2=C/CCCCCC2)CCC(NC(=O)C2c3cc(Cl)ccc3Oc3ccc(Cl)cc32)CC1 (configuration not stated) | > 20
3 | > 20 | > 20 | > 20 | > 20 | > 20 | > 20 | > 20 | > 20 | CCOC(=O)N1CCN(c2ccc(Cl)cc2)CC1 | > 20
4 | > 20 | > 20 | > 20 | 20 (≈ 7.56 µg/mL) | > 20 | > 20 | > 20 | > 20 | O=C1NC(=S)N/C1=C\c1cc(Br)cc(Br)c1O | > 20
5 | > 20 | > 20 | > 20 | > 20 | > 20 | > 20 | > 20 | 10 (≈ 3.4 µg/mL) | O=S(=O)(NCB(O)O)c1cc2c(Cl)ccc(Cl)c2s1 | > 20
6 | > 20 | > 20 | > 20 | > 20 | > 20 | > 20 | > 20 | > 20 | O=C(Nc1nnc(-c2ccc(Cl)cc2)o1)c1nc2ccccc2s1 | > 20
7 | > 20 | > 20 | > 20 | > 20 | > 20 | > 20 | > 20 | 20 (≈ 11.1 µg/mL) | COc1c(NC(=O)[C@H]2CC[C@@H](COc3ccc([N+](=O)[O-])cc3)CC2)c(F)cc2c(=O)c(C(=O)O)cn(C3CC3)c12 | > 20
8 | > 20 | > 20 | > 20 | > 20 | > 20 | > 20 | > 20 | > 20 | C[C@H]1[C@@H](c2cccc(C(F)(F)F)c2)OC(=O)N1C(=O)NCc1cncc2ccccc12 | > 20
9 | > 20 | > 20 | > 20 | > 20 | > 20 | > 20 | > 20 | > 20 | CCCC1(C2CC2)c2cc(Cl)ccc2NC(=O)N1C (configuration not stated) | > 20
10 | > 20 | 20 (≈ 6.55 µg/mL) | > 20 | > 20 | 20 (≈ 6.55 µg/mL) | > 20 | > 20 | > 20 | Oc1c(C(Nc2ccccn2)c2ccccc2)ccc2cccnc12 (configuration not stated) | 19.6
11 | > 20 | 0.625 (≈ 0.33 µg/mL) | > 20 | > 20 | ≤ 0.156 | > 20 | > 20 | > 20 | O[C@@](Cn1cnnn1)(c1ccc(F)cc1F)C(F)(F)c1ccc(-c2ccc(OCC(F)(F)F)cc2)cn1 [OTESECONAZOLE] | > 20
12 | > 20 | > 20 | > 20 | > 20 | > 20 | > 20 | > 20 | > 20 | Nc1nc2c(ncn2COCCO)c(=O)[nH]1 [ACYCLOVIR] | > 20
13 | > 20 | > 20 | > 20 | > 20 | > 20 | > 20 | > 20 | > 20 | O=C(O)c1cc(-c2ccccc2)nc2ccccc12 [CINCHOPHEN] | > 20
14 | > 20 | > 20 | > 20 | > 20 | > 20 | > 20 | > 20 | > 20 | COc1cc(C(C(=O)NC2CCCCC2)N(C(=O)Cc2c[nH]c3ccccc23)c2ccc(C(C)C)cc2)cc(OC)c1OC (configuration not stated) | > 20
15 | > 20 | > 20 | > 20 | > 20 | > 20 | > 20 | > 20 | > 20 | Cn1c2ccccc2c(=O)c2c(O)cccc21 | > 20
16 | > 20 | > 20 | > 20 | > 20 | > 20 | > 20 | > 20 | > 20 | O=[N+]([O-])c1ccc2c(CCc3c[nH]c4ccccc34)c[nH]c2c1 | > 20
17 | > 20 | > 20 | > 20 | > 20 | > 20 | > 20 | > 20 | > 20 | COc1nc2ccc(Br)cc2cc1[C@@H](c1ccccc1)[C@@](O)(CCN(C)C)c1cccc2ccccc12 [BEDAQUILINE] | > 20
18 | > 20 | > 20 | > 20 | > 20 | > 20 | > 20 | > 20 | > 20 | Cc1onc(-c2ccccc2)c1-c1ccc(S(N)(=O)=O)cc1 [VALDECOXIB] | > 20
19 | > 20 | > 20 | > 20 | > 20 | > 20 | > 20 | > 20 | > 20 | CC(C)Oc1ccc(-n2cnc3cc(/C=C\c4ccc(C(C)(C)O)cc4)ccc32)cc1 [LHF-535] | 10.6
20 | > 20 | > 20 | > 20 | > 20 | > 20 | > 20 | > 20 | > 20 | CC[C@@]1(O)C(=O)OCc2c1cc1n(c2=O)Cc2cc3c(CN(C)C)c(O)ccc3nc2-1 [TOPOTECAN HYDROCHLORIDE] | 0.218
21 | > 20 | > 20 | > 20 | 20 (≈ 7.61 µg/mL) | > 20 | > 20 | > 20 | > 20 | Cc1nc2ccc(Oc3ccccc3)cc2c2c1CCN2CCc1ccccc1 | 14.4
22 | > 20 | > 20 | > 20 | > 20 | > 20 | > 20 | > 20 | > 20 | Cc1oncc1C(=O)Nc1ccc(C(F)(F)F)cc1 [LEFLUNOMIDE] | > 20
23 | > 20 | > 20 | > 20 | > 20 | > 20 | > 20 | > 20 | > 20 | C[C@@H](NC(=O)c1ccccc1-c1ccccc1)B(O)O | > 20
24 | > 20 | > 20 | > 20 | > 20 | > 20 | > 20 | > 20 | > 20 | COCCn1cnc2c(O)nc(Nc3ccccc3)nc21 | > 20
25 | > 20 | > 20 | > 20 | > 20 | > 20 | > 20 | > 20 | > 20 | CCc1ccc(C2CC(C(F)(F)F)n3ncc(C(=O)NCc4ccc(OC)cc4)c3N2)cc1 (configuration not stated) | > 20
26 | > 20 | > 20 | > 20 | > 20 | > 20 | > 20 | > 20 | > 20 | Cc1ccccc1NC(=O)Nc1cccc([N+](=O)[O-])c1 | > 20
27 | > 20 | > 20 | > 20 | 20 (≈ 8.81 µg/mL) | > 20 | > 20 | > 20 | > 20 | NC(=O)C(c1ccccc1)(c1ccccc1)[C@H]1CCCN(CCc2ccc3c(c2)CCO3)C1 | > 20

Row | Structure (SMILES) | MIC (Acinetobacter baumannii) [µM] | MIC (Cryptococcus neoformans) [µM] | MIC (Escherichia coli) [µM] | MIC (Pseudomonas aeruginosa [1]) [µM] | MIC (Candida albicans) [µM] | MIC (Klebsiella pneumoniae) [µM] | MIC (Pseudomonas aeruginosa [2]) [µM] | MIC (Staphylococcus aureus) [µM] | CC50 (HEK293) [µM]
28 | NC1(C(=O)O)CCP(=O)(O)CC1 (configuration not stated) | > 20 | > 20 | > 20 | > 20 | > 20 | > 20 | > 20 | > 20 | > 20
